Measured values: patent US6359144B1, “Combinatorial libraries of bicyclic guanidine derivatives and compounds therein” (Lion Bioscience AG, priority 1997, dated 2002)
“And” between values parts separate entries of the source, which are not always exact repeats. Identical values can stand only once.

Biological target: T1, calmodulin (Homo sapiens, UniProt P0DP23)
T1 construct: purchased Boehringer Mannheim (calmodulin); Sigma (PDE, 5'-nucleotidase)
Experiment: Calmodulin-dependent phosphodiesterase (CaMPDE) assay
Format: biochemical
Conditions: 53 individual compounds, Table 17
Description: An example of an assay that identifies CaM antagonists is a CaMPDE assay, such as the one whose results are shown in Examples IX to XII, below. Samples are mixed with 50 μl of assay buffer (360 mM Tris, 360 mM Imidazole, 45 mM Mg(CH3COO)2, pH 7.5) and 10 μl of CaCl2 (4.5 mM) to a final volume of 251 μl. 25 μl of calmodulin stock solution (Boehringer Mannheim; 0.01 μg/μl) is then added and the samples then sit at room temperature for 10 minutes. 14 μl of PDE (Sigma; 2 Units dissolved in 4 ml of water; stock concentration: 0.0005 Units/μl) is then added, followed by 50 μl of 5′-nucleotidase (Sigma; 100 Units dissolved in 10 ml of 10 mM Tris-HCl containing 0.5 mM Mg(CH3COO)2, pH 7.0; stock concentration: 10 Units/ml). The samples are then incubated for 10 minutes at 30° C. 50 μl of adenosine 3′,5′-cyclic monophosphate (cAMP) (20 mM in water at pH 7.0) is added, the samples incubated for 1 hour at 30° C. and then vortexed. 200 μl of trichloroacetic acid (TCA) (55% in water) is added to a 200 μl sample aliquot, which is then vortexed and centrifuged for 10 minutes. 80 μl of the resulting supernatants of each sample is transferred to a 96-well plate, with 2 wells each containing 80 μl of each sample. 80 μl of ammonium molybdate (1.1% in 1.1N H2SO4) is then added to all the wells, and the OD of each were determined at 730 nm, with the values later subtracted to the final OD reading. 16 μl of reducing agent (6 g sodium bisulfite, 0.6 g sodium sulfite and 125 mg of 1-amino-2-naphtol-4-sulfonic acid in 50 ml of water) is then added to one of each sample duplicate and 16 μl of water is added to the other duplicate. After sitting for 1 hour at room temperature, the OD of each well is determined at 730 nm. […]

| Structure (SMILES) | IC50 |
| --- | --- |
| CC(C)(C)C1CCC(CN2C3=NC[C@@H](CC4CCCCC4)N3C[C@H]2CC2CCCCC2)CC1 (some centres unmarked) | 4.43 µM |
| CC(C)(C)C1CCC(CN2C3=NC[C@@H](CC4CCCCC4)N3C[C@@H]2CC2CCCCC2)CC1 (some centres unmarked) | 2.81 µM |
| CC(C)(C)C1CCC(CN2C3=NC[C@@H](C4CCCCC4)N3C[C@H]2C2CCCCC2)CC1 (some centres unmarked) | 15.5 µM |
| CC(C)(C)C1CCC(CN2C3=NC[C@@H](C4CCCCC4)N3C[C@@H]2C2CCCCC2)CC1 (some centres unmarked) | 10.7 µM |
| CC(C)(C)C1CCC(CN2C3=NC[C@H](CC4CCCCC4)N3C[C@H]2CC2CCCCC2)CC1 (some centres unmarked) | 1.89 µM |
| CC(C)(C)C1CCC(CN2C3=NC[C@H](CC4CCCCC4)N3C[C@@H]2CC2CCCCC2)CC1 (some centres unmarked) | 2.24 µM |
| CC(C)(C)C1CCC(CN2C3=NC[C@H](C4CCCCC4)N3C[C@H]2C2CCCCC2)CC1 (some centres unmarked) | 13.1 µM |
| CC(C)(C)C1CCC(CN2C3=NC[C@H](C4CCCCC4)N3C[C@@H]2C2CCCCC2)CC1 (some centres unmarked) | 14.6 µM |
| CC(C)(C)C1CCC(CN2C3=NC[C@H](Cc4ccccc4)N3C[C@@H]2Cc2ccccc2)CC1 (some centres unmarked) | 21.5 µM |
| CC(C)(C)C1CCC(CN2C3=NCC(C4CCCCC4)N3CC2CC2CCCCC2)CC1 (single isomer, unassigned) [listing 1 of 4 here] | 8.65 µM |
| CCN1C2=NC[C@@H](C)N2C[C@@H]1Cc1ccccc1 [D-ala/L-Phe/acetic acid] | 40.1 µM |
| CC(C)C[C@@H]1CN2C(=NC[C@@H]2C2CCCCC2)N1CCCC1CCCCC1 [L-Chg/D-leu/cyclohexylpropionic acid] | 25.2 µM |
| CCN1C2=NC[C@H](Cc3ccccc3)N2C[C@H]1Cc1c[nH]c2ccccc12 [L-Phe/D-trp/acetic acid] | 19.5 µM |
| c1ccc(C[C@H]2CN=C3N(CCC45CC6CC(CC(C6)C4)C5)[C@@H](Cc4ccccc4)CN32)cc1 [L-Phe/L-Phe/1-adamantaneacetic acid] | 16.7 µM |
| O=[N+]([O-])c1ccc(CCN2C3=NC[C@H](Cc4ccccc4)N3C[C@@H]2Cc2ccccc2)c([N+](=O)[O-])c1 [L-Phe/L-Phe/2,4-dinitrophenylacetic acid] | 12.5 µM |
| c1ccc(CC2CN3C(=NCC3Cc3ccccc3)N2CCc2ccc(-c3ccccc3)cc2)cc1 [L-Phe/L-Phe/4-biphenylacetic acid] | 14.1 µM |
| c1ccc(CC2CN3C(=NCC3Cc3ccccc3)N2CCCCC2CCCCC2)cc1 [L-Phe/L-Phe/cyclohexylbutyric acid] | 6.98 µM |
| c1ccc(CC2CN3C(=NCC3Cc3ccccc3)N2CCCC2CCCCC2)cc1 [L-Phe/L-Phe/cyclohexylpropionic acid] | 21.5 µM |
| CCN1C2=NC[C@H](Cc3ccccc3)N2C[C@@H]1Cc1c[nH]c2ccccc12 [L-Phe/L-Trp/acetic acid] | 24.8 µM |

Results, then the compound that gave them:

| IC50 | Structure (SMILES) |
| --- | --- |
| 4.73 µM | CC(C)(C)C1CCC(CN2C3=NC[C@@H](CC4CCCCC4)N3C[C@H]2C2CCCCC2)CC1 (some centres unmarked) |
| 4.71 µM | CC(C)(C)C1CCC(CN2C3=NC[C@@H](CC4CCCCC4)N3C[C@@H]2C2CCCCC2)CC1 (some centres unmarked) |
| 3.98 µM | CC(C)(C)C1CCC(CN2C3=NC[C@H](CC4CCCCC4)N3C[C@H]2C2CCCCC2)CC1 (some centres unmarked) |
| 10.1 µM | CC(C)(C)C1CCC(CN2C3=NC[C@H](CC4CCCCC4)N3C[C@@H]2C2CCCCC2)CC1 (some centres unmarked) |
| 3.19 µM | CC(C)(C)C1CCC(CN2C3=NCC(C4CCCCC4)N3CC2CC2CCCCC2)CC1 (single isomer, unassigned) [listing 2 of 4 here] |
| 2.4 µM | CC(C)(C)C1CCC(CN2C3=NCC(C4CCCCC4)N3CC2CC2CCCCC2)CC1 (single isomer, unassigned) [listing 3 of 4 here] |
| 5.21 µM | CC(C)(C)C1CCC(CN2C3=NCC(C4CCCCC4)N3CC2CC2CCCCC2)CC1 (single isomer, unassigned) [listing 4 of 4 here] |
| 10.2 µM | C1CCC(CC2CN3C(=NCC3CC3CCCCC3)N2CCC23CC4CC(CC(C4)C2)C3)CC1 (single isomer, unassigned) [D-cha/D-cha/1-adamantaneacetic acid] |
| 3.97 µM | C1CCC(CC2CN3C(=NCC3CC3CCCCC3)N2CCC23CC4CC(CC(C4)C2)C3)CC1 (single isomer, unassigned) [D-cha/L-Cha/1-adamantaneacetic acid] |
| 15.1 µM | C1CCC(CC2CN3C(=NCC3C3CCCCC3)N2CCC23CC4CC(CC(C4)C2)C3)CC1 (single isomer, unassigned) [D-chg/D-cha/1-adamantaneacetic acid] |
| 21.5 µM | C1CCC(C2CN3C(=NCC3C3CCCCC3)N2CCC23CC4CC(CC(C4)C2)C3)CC1 (single isomer, unassigned) [D-chg/D-chg/1-adamantaneacetic acid] |
| 4.74 µM and 6.46 µM | C1CCC(CC2CN3C(=NCC3C3CCCCC3)N2CCC23CC4CC(CC(C4)C2)C3)CC1 (single isomer, unassigned) [D-chg/L-Cha/1-adamantaneacetic acid] |
| 12.9 µM | C1CCC(C2CN3C(=NCC3C3CCCCC3)N2CCC23CC4CC(CC(C4)C2)C3)CC1 (single isomer, unassigned) [D-chg/L-Chg/1-adamantaneacetic acid] |
| 2.25 µM | C1CCC(CC2CN3C(=NCC3CC3CCCCC3)N2CCC23CC4CC(CC(C4)C2)C3)CC1 (single isomer, unassigned) [L-Cha/D-cha/1-adamantaneacetic acid] |
| 7.86 µM | C1CCC(CC2CN3C(=NCC3CC3CCCCC3)N2CCC23CC4CC(CC(C4)C2)C3)CC1 (single isomer, unassigned) [L-Cha/L-Cha/1-adamantaneacetic acid] |
| 2.83 µM | C1CCC(CC2CN3C(=NCC3C3CCCCC3)N2CCC23CC4CC(CC(C4)C2)C3)CC1 (single isomer, unassigned) [L-Chg/D-cha/1-adamantaneacetic acid] |
| 4.61 µM | C1CCC(C2CN3C(=NCC3C3CCCCC3)N2CCC23CC4CC(CC(C4)C2)C3)CC1 (single isomer, unassigned) [L-Chg/D-chg/1-adamantaneacetic acid] |
| 13.4 µM and 25.8 µM | C1CCC(CC2CN3C(=NCC3C3CCCCC3)N2CCC23CC4CC(CC(C4)C2)C3)CC1 (single isomer, unassigned) [L-Chg/L-Cha/1-adamantaneacetic acid] |
| 19.8 µM | C1CCC(C2CN3C(=NCC3C3CCCCC3)N2CCC23CC4CC(CC(C4)C2)C3)CC1 (single isomer, unassigned) [L-Chg/L-Chg/1-adamantaneacetic acid] |
| 17.4 µM | C1CCC(C[C@@H]2CN=C3N2C[C@@H](C2CCCCC2)N3CCC23CC4CC(CC(C4)C2)C3)CC1 [D-cha/D-chg/1-adamantaneacetic acid] |
| 10.1 µM | C1CCC(C[C@@H]2CN=C3N2C[C@H](C2CCCCC2)N3CCC23CC4CC(CC(C4)C2)C3)CC1 [D-cha/L-Chg/1-adamantaneacetic acid] |
| 15.7 µM | C1CCC(CCCN2C3=NC[C@@H](C4CCCCC4)N3C[C@@H]2CC2CCCCC2)CC1 [D-chg/L-Cha/cyclohexylpropionic acid] |
| 6.11 µM | C1CCC(C[C@H]2CN=C3N2C[C@@H](C2CCCCC2)N3CCC23CC4CC(CC(C4)C2)C3)CC1 [L-Cha/D-chg/1-adamantaneacetic acid] |
| 16.2 µM | C1CCC(C[C@H]2CN=C3N2C[C@H](C2CCCCC2)N3CCC23CC4CC(CC(C4)C2)C3)CC1 [L-Cha/L-Chg/1-adamantaneacetic acid] |
| 16.9 µM | CC(C)C[C@@H]1CN2C(=NC[C@@H]2C2CCCCC2)N1CCC12CC3CC(CC(C3)C1)C2 [L-Chg/D-leu/1-adamantaneacetic acid] |
